Values joined by “and” are separate entries in the source; they are usually repeats but may differ in a detail not shown here. Identical values can stand only once. Like-named read-outs stand apart in the source and are kept apart here.
How the values were obtained:
[1] = cited from earlier work; for Classification (acid/base) / dissociation constant - Pka: triazole fungicides, PPDB
[2] = PPDB, cited from earlier work; for Solubility in water: triazole fungicides
[3] = triazole fungicides; PPDB; cited from earlier work
[4] = design: RL50 min / RL50 max / RL50 average: unit not given beside the values; settings: cited from earlier work; for average daily rates of degradation: PPDB
[5] = Percentage of light absorption of the three active ingredients between 200 and 330 nm; settings: for Percentage of light absorption: typical application concentrations
[6] = Levels of fungicides in soybean leaves (total, internal, leaf surface, rainwater) at 3, 6 and 11 DAA, normalized by dose
[7] = soybean, in vivo
Corynespora cassiicola = assay: Target spot severity, AUDPC and control efficiency on soybean, Anaurilândia, MS; settings: 2020
[8] = strobilurin group; PPDB / PubChem; cited from earlier work
[9] = Persistence of fungicides in the plant matrix (RL50, half-life, daily degradation; literature)
[10] = Grape, Italy, Fruit, In and On, Open field, Garau 2009
[11] = Green bean, Egypt, Leaves, On, Open field, Hanafi 2010
[12] = Peanut, India, Leaves, In and On, Open field, Rao 2013
[13] = Rice, China, Whole plant, In and On, Open field, Guo 2017
[14] = Spring onion, Egypt, Leaves, On, Open field, Hanafi
[15] = Strawberry, China, Fruit, In and On, Undercover, Zhang 2009
[16] = Strawberry, China, Fruit, On, Undercover, Wang Z. 2015
[17] = Tomato, Fruit, In and On, Undercover, Jankowska 2016

Fc1ccc([C@]2(Cn3cncn3)O[C@H]2c2ccccc2Cl)cc1 (racemic) [epoxiconazole]
Classification (acid/base) [1]: no dissociation

Clc1ccc(C2(Cn3cncn3)OCCO2)c(Cl)c1 [azaconazole]
Solubility in water [2]: 300 mg/L oR PPM | Log Kow (Log de P) [3]: 2.36 | Classification (acid/base) [1]: very weak base

Clc1ccc(C2(Cn3cncn3)CC(Br)CO2)c(Cl)c1 (centres unmarked) [bromuconazole]
Solubility in water [2]: 48.3 mg/L oR PPM | Log Kow (Log de P) [3]: 3.24 | Classification (acid/base) [1]: strong acid

N#Cc1c(Cl)c(Cl)c(Cl)c(C#N)c1Cl [chlorothalonil]
solubility [2]: 0.81 ppm | water solubilities [2]: 0.81 mg/L | average daily rates of degradation ([4]; […]): 12.9% | average daily rates of degradation ([4]; only on the surface of plant tissues): 11.8% | Percentage of light absorption ([5]; Partial UVA, 315 a 330 nm): 100% | Percentage of light absorption ([5]; Partial UVC, 200 a 280 nm): 98.35% | Percentage of light absorption ([5]; UVB, 280 a 315 nm): 99.95% | ultraviolet light absorbed between 200 and 330 nm ([5]; typical concentrations of application in the field): practically all | average total levels for all commercial products and evaluated prototypes ([6]; 03 DAA, 40 to 50 repetitions): 210 (ng/g)/(g/ha) | average total levels for all commercial products and evaluated prototypes ([6]; 06 DAA): 132 ng.ha/g2 | average total levels for all commercial products and evaluated prototypes ([6]; 11 DAA): 66 ng.ha/g2

CC(C1CC1)C(O)(Cn1cncn1)c1ccc(Cl)cc1 (centres unmarked) [cyproconazole]
average total levels for all commercial products and evaluated prototypes ([7]; 3 days after application): 267 (ng/g)/(g/ha) | percentage of the internal content in relation to the total content ([7]; 3 days after application): 69% | average total levels for all commercial products and evaluated prototypes ([7]; 6 days after application): 173 ng.ha/g2 | percentage of the internal content in relation to the total content ([7]; 6 days after application): 62% | average total levels for all commercial products and evaluated prototypes ([7]; 11 days after application): 83 ng.ha/g2 | percentage of the internal content in relation to the total content ([7]; 11 days after application): 85% | Classification (acid/base) [1]: no dissociation | Percentage of light absorption ([5]; Partial UVA, 315 a 330 nm): 0.00000% | Percentage of light absorption ([5]; Partial UVC, 200 a 280 nm): 0.3824% | Percentage of light absorption ([5]; UVB, 280 a 315 nm): 0.00943%

CC1COC(Cn2cncn2)(c2ccc(Oc3ccc(Cl)cc3)cc2Cl)O1 (centres unmarked) [difenoconazole]
Log Kow (Log de P) [3]: 4.36 | Classification (acid/base) [1]: strong acid | dissociation constant - Pka [1]: 1.07

N#CC(CCc1ccc(Cl)cc1)(Cn1cncn1)c1ccccc1 (centres unmarked) [fenbuconazole]
Solubility in water [2]: 2.47 mg/L oR PPM | Log Kow (Log de P) [3]: 3.79 | Classification (acid/base) [1]: no dissociation

O=c1c2cc(F)ccc2nc(-n2cncn2)n1-c1ccc(Cl)cc1Cl [fluquinconazole]
Log Kow (Log de P) [3]: 3.24 | Classification (acid/base) [1]: strong acid

CCCCC(O)(Cn1cncn1)c1ccc(Cl)cc1Cl (centres unmarked) [hexaconazole]
Classification (acid/base) [1]: strong acid

CC1(C)CCC(Cc2ccc(Cl)cc2)C1(O)Cn1cncn1 (centres unmarked) [metconazole]
Classification (acid/base) [1]: very weak acid

CC(Cc1ccc(C(C)(C)C)cc1)CN1C[C@@H](C)O[C@@H](C)C1 (some centres unmarked) [phenpropimorph]
Severity (%) of target spot on soybean plants, Av5 (Corynespora cassiicola; fifth assessment): 29.4 D % | Severity (%) of target spot on soybean plants, Av1 (Corynespora cassiicola; first assessment): 0% | Severity (%) of target spot on soybean plants, Av4 (Corynespora cassiicola; fourth assessment): 8.0 A % | Severity (%) of target spot on soybean plants, Av2 (Corynespora cassiicola; second assessment): 1.4 A % | Severity (%) of target spot on soybean plants, Av6 (Corynespora cassiicola; sixth assessment): 37.2 C % | area under the disease progress curve (AUDPC) (Corynespora cassiicola; target spot, from six severity assessments): 688.9 D | Severity (%) of target spot on soybean plants, Av3 (Corynespora cassiicola; third assessment): 4.6 A %

CCCC1COC(Cn2cncn2)(c2ccc(Cl)cc2Cl)O1 (centres unmarked) [propiconazole]
Log Kow (Log de P) [3]: 3.72 | Classification (acid/base) [1]: very weak base

OC(Cc1ccccc1Cl)(Cn1nc[nH]c1=S)C1(Cl)CC1 (centres unmarked) [prothioconazole]
Solubility in water [2]: 22.5 mg/L oR PPM | Log Kow (Log de P) [3]: 2 | Classification (acid/base) [1]: weak acid | dissociation constant - Pka [1]: 6.9

COC(=O)N(OC)c1ccccc1COc1ccn(-c2ccc(Cl)cc2)n1 [pyraclostrobin]
Steam pressure [8]: 2.60E−05 mpa | ionization ([1]; strobilurin group, PPDB / PubChem): not ionizable | RL50 average [4, 10]: 5.40 | RL50 max [4, 10]: 5.40 | RL50 min [4, 10]: 5.40 | RL50 average [4, 11]: 4.30 | RL50 max [4, 11]: 4.30 | RL50 min [4, 11]: 4.30 | RL50 average [4, 12]: 2.86 | RL50 max [4, 12]: 2.88 | RL50 min [4, 12]: 2.84 | RL50 average [4, 13]: 10.10 | RL50 max [4, 13]: 13.90 | RL50 min [4, 13]: 6.30 | RL50 average [4, 14]: 3.10 | RL50 max [4, 14]: 3.10 | RL50 min [4, 14]: 3.10 | RL50 average [4, 15]: 4.06 | RL50 max [4, 15]: 4.06 | RL50 min [4, 15]: 4.06 | RL50 average [4, 16]: 3.70 | RL50 max [4, 16]: 3.70 | RL50 min [4, 16]: 3.70 | RL50 average [4, 17]: 2.78 and 2.70 | RL50 max [4, 17]: 2.78 and 2.70 | RL50 min [4, 17]: 2.78 and 2.70 | Daily percentage of degradation ([9]; in plants, from the literature observations of Table 04): 14.78% | half-life ([9]; in vivo): 4.33 days

CC(C)(C)C(O)(CCc1ccc(Cl)cc1)Cn1cncn1 (centres unmarked) [tebuconazole]
Log Kow (Log de P) [3]: 3.7

FC(F)C(F)(F)OCC(Cn1cncn1)c1ccc(Cl)cc1Cl (centres unmarked) [tetraconazole]
Classification (acid/base) [1]: strong acid

CC1(C)CCC(=Cc2ccc(Cl)cc2)C1(O)Cn1cncn1 (centres unmarked) [triticonazole]
Classification (acid/base) [1]: no dissociation

CC(C)(C)C(O)/C(=C\c1ccc(Cl)cc1)n1cncn1 (centres unmarked) [uniconazole]
Classification (acid/base) [1]: very weak acid

Reference: patent publication US20240397946A1 (priority 2021, published 2024)
